Values quoted from earlier work in patent publication US20050271673A1, “Trifunctional reagent for conjugation to a biomolecule” (priority 1998, published 2005).

Assays:
[1] = molecular target: avidin (Gallus gallus, UniProt P02701); conditions: association constant; Green 1990, 1975
[2] = molecular target: streptavidin (Streptomyces avidinii, UniProt P22629); conditions: association constant; Green 1990, 1975
streptavidin, sequence (P22629 25-183, species assumed): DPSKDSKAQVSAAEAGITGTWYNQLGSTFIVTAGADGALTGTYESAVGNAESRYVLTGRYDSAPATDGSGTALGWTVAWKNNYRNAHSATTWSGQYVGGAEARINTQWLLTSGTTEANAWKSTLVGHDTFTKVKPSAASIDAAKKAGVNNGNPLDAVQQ

avidin, sequence (P02701 25-152, species assumed): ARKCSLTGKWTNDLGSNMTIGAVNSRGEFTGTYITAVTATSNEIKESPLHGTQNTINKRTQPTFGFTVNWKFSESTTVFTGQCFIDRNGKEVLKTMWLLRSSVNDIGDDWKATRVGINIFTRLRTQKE

For `O=C(O)CCCC[C@@H]1SC[C@@H]2NC(=O)N[C@@H]21` [biotin], the “K (binding constant of biotin with avidin)” value [1] is given as 1013 to 1015 M⁻¹ and the “K (binding constant of biotin with streptavidin)” value [2] is given as 1013 to 1015 M⁻¹.
